Laboratory results taken from patent US7504422B2, “Polyamine compounds” (Taigen Biotechnology Co. Ltd., priority 2003, dated 2009).

B1: G-CSF: granulocyte-colony stimulating factor; growth factor for stem cells and EPCs currently used in clinics (protein, UniProt P09919 31-207, looked up)
Granulocyte …: TPLGPASSLPQSFLLKCLEQVRKIQGDGAALQEKLVSECATYKLCHPEELVLLGHSLGIPWAPLSSCPSQALQLAGCLSQLHSGLFLYQGLLQALEGISPELGPTLDTLQLDVADFATTIWQQMEELGMAPALQPTQGAMPAFASAFQRRAGGVLVASHLQSFLEVSYRVLRHLAQP

Tests used:
[1] = test system: hematopoietic stem cells CD34+ and EPCs CD133+; experiment: Stem cell and endothelial progenitor cell mobilization into peripheral blood; assay type: in vivo, BALB/c mice; conditions: for Fold increase at 1 mg/Kg, CD34+ / Fold increase at Maximum Tolerated Dose (MTD), CD34+: CD34+ cells in circulation; for Fold increase at 1 mg/Kg, CD34+ / Fold increase at Maximum Tolerated Dose (MTD), CD34+ / Fold increase at 1 mg/Kg, CD133+ / Fold increase at Maximum Tolerated Dose (MTD), CD133+: mice; for Fold increase at Maximum Tolerated Dose (MTD), CD34+ / Fold increase at Maximum Tolerated Dose (MTD), CD133+: MTD (125: 15 mg/kg, 136: 30 mg/Kg); for Fold increase at 1 mg/Kg, CD133+ / Fold increase at Maximum Tolerated Dose (MTD), CD133+: CD133+ cells in circulation; for Fold increase in circulation, CD34+ / Fold increase in circulation, CD133+: Table 2, 125 at 15 mg/Kg, G-CSF at 50 ug/kg/d × 4, alone or combined; for mobilization of hematopoietic stem cells CD34+ and EPCs CD133+ into peripheral blood: animal studies
Description: The in vivo efficacy of these two compounds in mobilizing stem cells was tested in male Special Pathogens Free (SPF) BALB/c mice. Different concentrations of a compound solution were prepared and administrated either intravenously of intramuscularly into mice. Mice receiving saline were used as a control. Whole blood was collected at 3 hours after i.v. injection or 6 hours after i.m. injection by cardiac puncture. Total leukocytes were resuspended in PBS and cell numbers were counted using trypan blue exclusion. Cells numbers were adjusted to 6×10^4 in 0.1 mL PBS for antibody staining. CXCR4^+ cells, CD34^+ cells, and CD133^+ cells were counted using surface staining and flow cytometry analysis. Data represents mean ±SEM of four independent experiments. Levels of cell number in different groups were compared using One-way ANOVA, differences were considered significant if P values were <0.05.

Maximum Tolerated Dose = conditions: male, BALB/c, mouse, in vivo, intravenous; mice

Molecule | Fold increase at 1 mg/Kg, CD34+ [1] | Fold increase at Maximum Tolerated Dose (MTD), CD34+ [1] | Fold increase at 1 mg/Kg, CD133+ [1] | Fold increase at Maximum Tolerated Dose (MTD), CD133+ [1] | Fold increase in circulation, CD34+ [1] | Fold increase in circulation, CD133+ [1] | mobilization of hematopoietic stem cells CD34+ and EPCs CD133+ into peripheral blood [1] | MTD (Maximum Tolerated Dose)
c1ccc(CNCCN(CCNCc2ccccn2)Cc2ccc(CNCc3nc4ccccc4[nH]3)cc2)nc1 [Compound 125, N-(4-{[(1H-benzoimidazol-2-ylmethyl)-amino]-methyl}-benzyl)-N′-pyridin-2-ylmethyl-N-{2-[(pyridin-2-ylmethyl)-amino]-ethyl}-ethane-1,2-diamine] | 3.99 fold | 6.58 fold | 2.24 fold | 5.77 fold | 7.1 fold | 6.0 fold | rapidly mobilized | 15 mg/kg
COc1ccc2[nH]c(CNCc3ccc(CN(CCNCc4ccccn4)CCNCc4ccccn4)cc3)nc2c1 [Compound 136, N1-(4-(((5-methoxy-1H-benzo[d]imidazol-2-yl)methylamino)methyl)benzyl)-N2-(pyridin-2-ylmethyl)-N1-(2-(pyridin-2-ylmethylamino)-ethyl)ethane-1,2-diamine] | 2.63 fold | 5.66 fold | 3.17 fold | 8.49 fold | – | – | rapidly mobilized | 30 mg/kg
B1 | – | – | – | – | 8.4 fold | 26.2 fold | – | –
